Laboratory results from US8980843B2, “Leptin agonist and methods of use” (Temple University—of the Commonwealth System of Higher …, priority 2009, dated 2015).
Entries after “also recorded” stand apart in the source; their conditions may differ. Non-standard residues stand in square brackets, D forms with d. Residues, ends and D or L forms follow the SMILES beside them. *: point of attachment. αGalNAc = CC(=O)N[C@@H]1[C@@H](O)[C@@H](O)[C@@H](CO)O[C@@H]1*; Tyr(3,5-I2) = N[C@@H](Cc1cc(I)c(O)c(I)c1)C(=O)O; Acp = not defined here; Ahx = NCCCCCC(=O)O

Legend:
[1] = tested on: high-fat induced obesity (DIO) C57BL/6 mice; assay: Mouse model of obesity and leptin resistance (DIO mice); type: in vivo; settings: for Blood glucose level / Blood total cholesterol level: DIO mice; for resistance to treatment (weight curves): 10-day ip treatment, leptin 0.1, compound (1) 0.02 and 0.1 mg/kg/day
Description: Animals were sacrificed by CO2 inhalation. Livers were removed and fixed in 10% buffered formaldehyde, pH, 7.4. After 24 hour fixation, liver specimens were dehydrated in graded ethanol and placed into methyl benzoate for an hour. The specimens were then transferred to xylene and embedded into paraffin. 6-μm thick paraffin sections were deparaffinized and stained with H&E. Photomicrographs were taken by using a Zeiss light microscope equipped with a CCD camera. The final magnification of the pictures was 200-fold.
An animal model for leptin resistance was used to evaluate compounds of the invention. In this model, based on high-fat induced obesity (DIO) of normal mice, the animals are fed with a diet containing 40-60% fat and become resistant to leptin treatment (Steinberg et al., 2006, Endocrinology 147: 3906-3914; Nakagawa et al., 2003, J. Obesity 27: 557-565). Normal C57BL/6 mice were fed with regular 6% lab chow until 3 weeks of age when their diet was switched to peanuts only. Peanuts have 47-50% dry fat content, and are considered a typical high-fat food (Isleib et al., 2004, J. Agric. Food Chem. 52: 3165-3168). DIO mice develop peripheral leptin resistance after 16 days of high-fat diet (van Heek et al., 1997, J. Clin. Invest. 99:3 85-390). In this study, the mice were fed peanuts for 5 weeks. The animals had access to water and peanuts ad libitum. After 3 weeks (total age 6 weeks) a group of 6 mice remained untreated, and 4 groups received leptin or a compound of the invention.
Mice were weighed daily and received a daily single dose (around noon time) intraperitoneally with the following scheme: Group 1 (6 mice: 3 males, 3 females) —physiological solution (control); Group 2 (6 mice: 3 males, 3 females) —0.1 mg/kg/day leptin; Group 3 (4 mice: 2 males, 2 females) —0.02 mg/kg/day compound of the invention; Group 4 (6 mice: 3 males, 3 females) —0.1 mg/kg/day compound of the invention; and Group 5 (4 mice: 2 males, 2 females) —0.5 mg/kg/day compound of the invention. After 10 days of treatment, one male and one female mouse from each group were sacrificed and bled, and their livers, spleens, kidneys and brains were removed for histology and toxicity analysis.
The DIO mice were allowed to eat peanut ad libitum. They were weighed daily and received the following intraperitoneal treatment at noontime: Group 1 (6 mice: 3 males, 3 females) —physiological solution (control); Group 2 (6 mice: 3 males, 3 females) —0.1 mg/kg/day of leptin; Group 3 (4 mice: 2 males, 2 females) —0.02 mg/kg/day of compound (1); Group 4 (6 mice: 3 males, 3 females) —0.1 mg/kg/day of compound (1); and Group 5 (4 mice: 2 males, 2 females) —0.5 mg/kg/day of compound (1).

C57BL/6 mice = assay: Short chronic toxicity study in peanut-fed mice; type: in vivo; settings: 1.5 or 4.0 mg/kg ip once daily, 4 days
Description: Eight C57BL/6 mice, 6 weeks of age (8 mice: 4 males, 4 females), were fed with peanut diet for 6 days. They were split in three different groups. The first group was left untreated (4 mice: 2 males, 2 females). The second group received a compound of the invention once daily intraperitoneally at 1.5 mg/kg for 4 days (2 mice: 1 male, 1 female). The third group received a compound of the invention once daily intraperitoneally at 4.0 mg/kg (2 mice: 1 male, 1 female) for 4 days. The animals were inspected daily for signs of disease or discomfort. After 5 days of treatment, the mice were weighed, sacrificed with CO2 inhalation, and bled for laboratory blood analysis. Their brains, livers, kidneys and spleens were inspected, removed and weighed.
Eight mice (4 males, 4 females) were fed with peanut diet for 6 days. After that, they were left untreated (2 males, 2 females), or received compound (1) once daily at 1.5 mg/kg (1 male, 1 female) or 4.0 mg/kg (1 male, 1 female) for 4 days.

[2] = tested on: ObR-positive LN229 glioblastoma cells; assay: Cell proliferation assay, ObR-positive LN229 glioblastoma cells; type: cell-based; settings: for Selectivity (EC/IC): LN229 cells
Description: (§1) LN18 and LN229 cells naturally expressing ObR were purchased from ATCC and were cultured in DMEM low glucose plus 5% fetal bovine serum.
(§2) Seventy percent confluent cultures of LN18 and LN229 cells were synchronized in serum-free medium (DMEM plus 10 μM FeSO4 and 0.5% bovine serum albumin—BSA) for 48 hours and then treated with leptin and/or compounds (different doses) for 3 days. Cell numbers before and after treatment were determined by direct counting the cells with trypan blue exclusion. All assays were done in triplicate and repeated 3-6 times. The cell numbers were expressed as means±standard error. The results were statistically evaluated by Student's t-test and analysis of variance (ANOVA). Values of p<0.05 were considered statistically significant.
(§3) Stimulation of ObR-positive cells by compound (1) was evaluated. A true agonist of an ObR-positive receptor should stimulate the growth of ObR-positive cells when added alone and should not antagonize the actions of leptin in the same cells. In order to determine whether compound (1) is a true agonist, the ObR-positive, CNS-resident glioblastoma cell lines LN229 and LN18 were used. EC values for this peptide were measured without exogenous leptin present, and IC values with 12 nM leptin added.

[3] = tested on: ObR-positive LN18 glioblastoma cells; assay: Cell proliferation assay, LN18 glioblastoma cells; type: cell-based; settings: data not shown
Description: as §1, §2, §3

obese C57BL/6 mice = assay: Pregnancy test after treatment of obese mice; type: in vivo; settings: for Number of pregnancy incidents: observed 5 weeks
Text: The remaining mice after the treatment with leptin or a compound of the invention were returned to 6% fat lab chow diet, and locked into cages in couples. […] The two successful litters were examined for growth and behavioral patterns.
Upon cessation of the weight gain assay and laboratory work, the remaining mice were returned to 6% fat lab chow diet, and locked into cages in couples to investigate whether treatment with leptin or compound (1) improved their fertility rates. […] Neither of two couples of control, untreated mice produced litters, as expected (Table 3). […] Leptin treatment somewhat improved the situation because one of the two couples produced a litter. As for the couple of mice treated with the 0.5 mg/kg/day dose of compound (1), the female became pregnant immediately and delivered 6 healthy pups in less than a month (Table 3).

normal F344 male rats = assay: Rat appetite control, intranasal administration to normal rats; type: in vivo; settings: 0.1 mg/kg/day intranasal
Description: Eight 6-weeks-old male […] rats were kept on regular laboratory diet. At noon time for 10 days, the animals were weighed, turned upside down, and received 0.1 mg/kg/day of a compound of the invention ([…]) or physiological solution ([…]) dripped in 10 μL volume into their nose. On day 15, the rats were weighed and sacrificed (cervical dislocation), and bled for laboratory blood analysis. Their brains, livers, kidneys and spleens were removed and weighed.
Rats were allowed to lab chow ad libitum, and treatment lasted for 10 days with 0.1 mg/kg/day single dose of compound (1) dropped into the nose in 10 μL salt solution. Untreated control animals were administered 10 μL physiological salt solution. Results are represented in FIG. 5.

[4] = In vivo biodistribution of fluorescent-labelled peptide
Description: Compound (2), labeled with fluorescent dye Alexa Fluor® 680, was prepared and purified by reverse phase HPLC. 5 μg of the compound were injected intraperitoneally into anesthetized female Balb/c mice. While sleeping, the animals were placed into the fluorescence microscope chamber. Fluorescence exposure pictures were taken with a Kodak 4000MM camera set to 695 nm emission wavelength at five minute intervals afterwards for 80 min.

[5] = 5 μg intraperitoneally, fluorescence imaging

Compound: CC(=O)N[C@H]1[C@@H](O[C@H](C)[C@H](NC(=O)[C@H](CO)NC(=O)[C@@H](N)Cc2cc(I)c(O)c(I)c2)C(=O)N[C@@H](CCC(=O)O)C(=O)N[C@H](C(=O)N[C@H](C(=O)N[C@@H](C)C(=O)N[C@@H](CC(C)C)C(=O)N[C@@H](CO)C(=O)N[C@@H](CCCNC(=N)N)C(=O)NCCCCCC(N)=O)C(C)C)C(C)C)O[C@H](CO)[C@H](O)[C@@H]1O [compound (1), Tyr(I2)-Ser-Thr(α-GalNAc)-Glu-Val-Val-Ala-Leu-Ser-Arg-AcpNH2] (H-[Tyr(3,5-I2)]ST(αGalNAc)EVVALSR[Ahx]-NH2; N-terminus assumed)
- weight reduction relative to untreated controls at end of treatment ([1]; 0.02 mg/kg/day ip, 10 days): 0.5 g
- Blood glucose level ([1]; 0.02 mg/kg/day ip): 8.45 mM/L
- Blood total cholesterol level ([1]; 0.02 mg/kg/day ip): 2.51 mM/L
- weight reduction relative to untreated controls at end of treatment ([1]; 0.1 mg/kg/day ip, 10 days): 0.6 g
- Blood glucose level ([1]; 0.1 mg/kg/day ip): 8.55 mM/L
- Blood total cholesterol level ([1]; 0.1 mg/kg/day ip): 2.77 mM/L
- blood cholesterol level reduction ([1]; 0.5 mg/kg/day ip): 9%
- glucose level reduction ([1]; 0.5 mg/kg/day ip): 17%
- liver fat cell content (histology) ([1]; 0.5 mg/kg/day ip): fatty cytoplasm could no longer be observed; also recorded: fat cells were completely eliminated from the liver
- net total body weight loss ([1]; 0.5 mg/kg/day ip, 10 days): 6.5%
- relative weight loss compared to untreated mice ([1]; 0.5 mg/kg/day ip, 10 days): 1.3 g
- Blood glucose level ([1]; 0.5 mg/kg/day ip): 7.06 mM/L
- Blood total cholesterol level ([1]; 0.5 mg/kg/day ip): 2.08 mM/L
- liver fat cell content, dose dependence ([1]; 0.02, 0.1 and 0.5 mg/kg/day ip): lowered the fatty cell content of the liver in a dose-dependent manner
- resistance to treatment (weight curves) [1]: lack of resistance to peptide treatment
- average organ weight, brain (C57BL/6 mice): 0.3 g
- average organ weight, kidney (females) (C57BL/6 mice): 0.20 g
- average organ weight, kidney (males) (C57BL/6 mice): 0.25 g
- average organ weight, liver (C57BL/6 mice): 1.06 g
- average organ weight, spleen (C57BL/6 mice): 0.09 g
- gross necropsy (C57BL/6 mice): no signs of toxicity
- weight change during compound addition (C57BL/6 mice): Three of the 4 treated mice lost weight
- Selectivity (EC/IC) [2]: >100
- Selectivity (EC/IC) ([2]; listed as Compound (1)): greater than 100
- IC100 ([2]; LN229 proliferation, with 12 nM leptin added): >100 nM
- EC100 ([2]; LN229 proliferation, without exogenous leptin, 3 days): <1 nM
- Antagonistic properties (ICs) to leptin-induced LN229 stimulation ([2]; with 12 nM leptin added): ≥ 100 nM
- agonistic activity [3]: picomolar agonistic activities
- Number of pregnancy incidents (obese C57BL/6 mice; after 0.02 mg/kg/day ip): 0
- Number of pregnancy incidents (obese C57BL/6 mice; after 0.1 mg/kg/day ip): 0
- healthy pups delivered (obese C57BL/6 mice; after 0.5 mg/kg/day ip, one couple): 6
- Number of pregnancy incidents (obese C57BL/6 mice; after 0.5 mg/kg/day ip): 1
- fertility of couples (obese C57BL/6 mice; low-dose regimen (0.02 and 0.1 mg/kg/day)): remained infertile
- weight growth less than untreated controls (normal F344 male rats; 10 days, day 11): 10.8 g
- net total body weight (tbw) loss (normal F344 male rats; 10 days, day 14): 6.8%
- weight growth less than untreated controls (normal F344 male rats; 10 days, day 14): 11.7 g
- average total blood cholesterol level (normal F344 male rats; at sacrifice): 1.28 mmol/L
- organ weight, brain (normal F344 male rats; at sacrifice): 1.2 g
- organ weight, kidney (normal F344 male rats; at sacrifice): 1.5 g
- organ weight, liver (normal F344 male rats; at sacrifice): 6.9 g
- organ weight, spleen (normal F344 male rats; at sacrifice): 0.42 g
- BBB-penetrating ability, by inference from compound (2) ([4]; inferred from labelled analogue): good BBB-penetrating ability

Compound: Alexa680-Tyr(I2)-Ser-Thr(α-GalNAc)-Glu-Val-Val-Ala-Leu-Ser-Arg-AcpNH2 ({Alexa680-Tyr(3,5-I2)-Ser-Thr(α-GalNAc)}-EVVALSR-{Acp-NH2}; reading uncertain) [compound (2)]
- BBB-penetrating ability [4, 5]: good BBB-penetrating ability
- distribution into peptide elimination organs (kidneys, liver, spleen) [4, 5]: distributed into the usual peptide elimination organs within one hour from administration
- presence in tail, limbs and brain [4, 5]: also found in the tail, the limbs and the brain

Compound: leptin: Human leptin purchased from R&D Systems; 146-amino acid neurohormone, native ObR ligand
- liver fat cell content (histology) ([1]; 0.1 mg/kg/day ip): acinoperipheral regions of the liver still contained fat cells
- weight reduction relative to untreated controls at end of treatment ([1]; 0.1 mg/kg/day ip, 10 days): 0.3 g
- Blood glucose level ([1]; 0.1 mg/kg/day ip): 5.22 mM/L
- Blood total cholesterol level ([1]; 0.1 mg/kg/day ip): 2.47 mM/L
- resistance to treatment (weight curves) [1]: fast acquisition of resistance
- Number of pregnancy incidents (obese C57BL/6 mice; after 0.1 mg/kg/day ip): 1
